The source made the active and inactive calls. No rule for the calls is given here.

Our source for the mutagenic call and call values is PubChem BioAssay AID1259408 (Genetic Toxicology Data Bank (GENE-TOX), 2018).

The subject of the series is GENE-TOX genotoxicity assays, various organisms and cells. The experiment in a line: GENE-TOX mutagenicity studies. Particulars: for call: Assay Type: In vivo carcinogenicity studies, Assay Code: CCG+.
The mark [1] stands for this setting: Species/Cell Type: Nonhuman, Evaluation Type: Evaluation A (Pre-1980).
Where [2] appears, read: Species/Cell Type: Salmonella typhimurium (one or more of the five standard strains: TA98, TA100, TA1535, TA1537, and TA1538), Assay Type: Histidine reverse gene mutation, Ames assay, Assay Code: SAL+*, Activation: With metabolic activation, Evaluation Type: Evaluation A (Pre-1980).
[3] abbreviates: Species/Cell Type: Bacillus subtilis (H17 vs M45), Assay Type: Rec-assay, spot test, DNA effects (bacterial DNA repair), Assay Code: REWT, Evaluation Type: Evaluation A (Pre-1980).
Setting [4] is: Species/Cell Type: Human, Assay Type: Sister-chromatid exchange (SCE) in vitro, Assay Code: SC1+D, Dose Response: With dose response, Evaluation Type: Evaluation B (Post-1980).
Setting [5] is: Species/Cell Type: Saccharomyces cerevisiae, Assay Type: Mitotic recombination or gene conversion, Assay Code: YEC+, Evaluation Type: Evaluation A (Pre-1980).
The mark [6] stands for this setting: Species/Cell Type: Salmonella typhimurium (one or more of the five standard strains: TA98, TA100, TA1535, TA1537, and TA1538), Assay Type: Histidine reverse gene mutation, Ames assay, Assay Code: SAL+, Evaluation Type: Evaluation A (Pre-1980).

With `O=NN1CCCC1`, the mutagenic call (Species/Cell Type: Chinese hamster lung (V79) cells, Assay Type: Forward gene mutation at the HPRT or ouabain locus, Assay Code: V79+, Evaluation Type: Evaluation A (Pre-1980)) was “active; positive”; the mutagenic call (Species/Cell Type: Nonhuman, Assay Type: Sister-chromatid exchange (SCE) in vivo, Assay Code: SC3+, Evaluation Type: Evaluation B (Post-1980)) is “active; positive”; the mutagenic call (Species/Cell Type: Rat primary hepatocytes, Assay Type: Unscheduled DNA synthesis (UDS) in vitro, DNA effects, Assay Code: UDP+D, Dose Response: With dose response, Evaluation Type: Evaluation A (Pre-1980)) was “active; positive”; the mutagenic call under setting [2] is “active; positive”. In addition, the call under setting [1] is “active; positive”.

As for `O=S(=O)(O)c1ccc(N=Nc2ccc(O)c3ccccc23)cc1`, the mutagenic call was “no conclusion” under setting [3]; “no conclusion” (Species/Cell Type: Bacillus subtilis (H17 vs M45T), Assay Type: Rec-assay, spot test, DNA effects (bacterial DNA repair), Assay Code: REXT, Evaluation Type: Evaluation A (Pre-1980)); “inactive; negative” (Species/Cell Type: Salmonella typhimurium (one or more of the five standard strains: TA98, TA100, TA1535, TA1537, and TA1538), Assay Type: Histidine reverse gene mutation, Ames assay, Assay Code: SAL-, Evaluation Type: Evaluation A (Pre-1980)).

With `Nc1ccc(F)cc1`, the mutagenic call (Species/Cell Type: Mouse, Sex: Male, Assay Type: Sperm morphology, Assay Code: SPI-, Evaluation Type: Evaluation A (Pre-1980)) was “inactive; negative”.

Regarding `S=P(N1CC1)(N1CC1)N1CC1`, the mutagenic call is “active; positive” (Species/Cell Type: Drosophila melanogaster, Assay Type: Sex-linked recessive lethal gene mutation, Assay Code: SRL+, Evaluation Type: Evaluation A (Pre-1980)); “active; positive” (Species/Cell Type: Human lymphocytes or leukocytes, Assay Type: Chromosome aberrations in vitro, Assay Code: CY7+, Evaluation Type: Evaluation A (Pre-1980)); “active; positive” (Species/Cell Type: Human lymphocytes, Assay Type: Sister-chromatid exchange (SCE) in vitro, Assay Code: SCL+D, Dose Response: With dose response, Evaluation Type: Evaluation B (Post-1980)); “active; positive” under setting [4]; “active; positive” (Species/Cell Type: Mammalian polychromatic erythrocytes, Assay Type: Micronucleus test, chromosome aberrations, Assay Code: MNT+, Evaluation Type: Evaluation A (Pre-1980)); “active; positive” (Species/Cell Type: Mouse (C3H/10T1/2) cells, Assay Type: Cell transformation, Assay Code: CTH+, Evaluation Type: Evaluation A (Pre-1980)). Besides, the mutagenic call is “active; positive” (Species/Cell Type: Mouse, Sex: Male, Assay Type: Heritable translocation test, chromosome aberrations, Assay Code: HTT+, Evaluation Type: Evaluation A (Pre-1980)); “active; positive” (Species/Cell Type: Mouse, Sex: Male, Assay Type: Sperm morphology, Assay Code: SPI+, Evaluation Type: Evaluation A (Pre-1980)); “active; positive” (Species/Cell Type: Nonhuman bone marrow, Assay Type: Chromosome aberrations, in vivo, Assay Code: CY#+D, Dose Response: With dose response, Evaluation Type: Evaluation A (Pre-1980)); “active; positive” (Species/Cell Type: Nonhuman, Assay Type: Chromosome aberrations in vitro, Assay Code: CY&+, Evaluation Type: Evaluation A (Pre-1980)); “active; positive” (Species/Cell Type: Nonhuman, Assay Type: Sister-chromatid exchange (SCE) in vitro, Assay Code: SC2+D, Dose Response: With dose response, Evaluation Type: Evaluation A (Pre-1980)); “active; positive” (Species/Cell Type: Rodents, Sex: Male, Assay Type: Dominant lethal test, Assay Code: DLT+D, Dose Response: With dose response, Evaluation Type: Evaluation A (Pre-1980)). The mutagenic call is, setting by setting: under setting [5], “active; positive”; under setting [6], “active; positive”; (Species/Cell Type: Salmonella typhimurium, Assay Type: Forward and reverse gene mutation, host-mediated assay, Assay Code: HMA+, Evaluation Type: Evaluation A (Pre-1980)) “active; positive”; (Species/Cell Type: Vicia faba, Assay Type: Chromosome aberrations, Assay Code: VIC+D, Dose Response: With dose response, Evaluation Type: Evaluation A (Pre-1980)) “active; positive”. Further, the call under setting [1] was “active; positive”.

As for `Cc1ccc2cc3c(ccc4ccccc43)c3c2c1C(O)C3O` (stereo not given), where the note is “Species/Cell Type: Mouse prostate cells, Assay Type: Cell transformation, Assay Code: CTM+D, Dose Response: With dose response, Evaluation Type: Evaluation A (Pre-1980)”, the mutagenic call is “active; positive”.

As for `Cc1c(C2(c3cc(C(C)C)c(O)c(Br)c3C)OS(=O)(=O)c3ccccc32)cc(C(C)C)c(O)c1Br`, under setting [3], the mutagenic call is reported as “no conclusion”.

Turning to `CCCCN(CC(O)CCO)N=O` (stereo not given), under setting [2], the mutagenic call is “active; positive”.

Turning to `O=[O+][O-]`, the mutagenic call is “no conclusion” (Species/Cell Type: Human lymphocytes or leukocytes, Assay Type: Chromosome aberrations in vitro, Assay Code: CY7T, Evaluation Type: Evaluation A (Pre-1980)); “no conclusion” (Species/Cell Type: Human lymphocytes or leukocytes, Assay Type: Chromosome aberrations in vivo, Assay Code: CY8T, Evaluation Type: Evaluation A (Pre-1980)); “active; positive” under setting [4]; “no conclusion” (Species/Cell Type: Mammalian germ cells, Sex: Male, Assay Type: Chromosome aberrations in vivo, Assay Code: CY9T, Evaluation Type: Evaluation A (Pre-1980)); “inactive; negative” (Species/Cell Type: Nonhuman bone marrow, Assay Type: Chromosome aberrations, in vivo, Assay Code: CY#-, Evaluation Type: Evaluation A (Pre-1980)); “no conclusion” (Species/Cell Type: Nonhuman lymphocytes or leukocytes, Assay Type: Chromosome aberrations in vivo, Assay Code: CY%T, Evaluation Type: Evaluation A (Pre-1980)). For the same molecule, the mutagenic call is, setting by setting: (Species/Cell Type: Nonhuman, Assay Type: Sister-chromatid exchange (SCE) in vivo, Assay Code: SC3-, Evaluation Type: Evaluation A (Pre-1980)) “inactive; negative”; (Species/Cell Type: Tradescantia species, Assay Type: Gene mutation, Assay Code: TRM+D, Dose Response: With dose response, Evaluation Type: Evaluation A (Pre-1980)) “active; positive”; (Species/Cell Type: Vicia faba, Assay Type: Chromosome aberrations, Assay Code: VIC+, Evaluation Type: Evaluation A (Pre-1980)) “active; positive”.

`Nc1nc(/C=C/c2ccc([N+](=O)[O-])o2)no1`: the mutagenic call is “active; positive” (Species/Cell Type: Fischer rat embryo (RLV/1706) cells, Assay Type: Cell transformation, viral enhanced, Assay Code: CTR+, Evaluation Type: Evaluation A (Pre-1980)); “active; positive” (Species/Cell Type: Neurospora crassa, Assay Type: Forward gene mutation, Assay Code: NEF+, Evaluation Type: Evaluation A (Pre-1980)); “active; positive” (Species/Cell Type: Neurospora crassa, Assay Type: Reverse gene mutation, Assay Code: NER+, Evaluation Type: Evaluation A (Pre-1980)); “active; positive” under setting [5]; “active; positive” (Species/Cell Type: Saccharomyces cerevisiae, Assay Type: Mitotic recombination or gene conversion, Assay Code: YEH+, Evaluation Type: Evaluation A (Pre-1980)); “active; positive” (Species/Cell Type: Saccharomyces cerevisiae, Assay Type: Reverse gene mutation, Assay Code: YER+, Evaluation Type: Evaluation A (Pre-1980)).

Take `[CH3][Hg][Cl]`: the mutagenic call runs as follows: (Species/Cell Type: Bacillus subtilis (H17 vs M45), Assay Type: Rec-assay, spot test, DNA effects (bacterial DNA repair), Assay Code: REW+, Evaluation Type: Evaluation A (Pre-1980)) “active; positive”; (Species/Cell Type: Human lymphocytes, Assay Type: Sister-chromatid exchange (SCE) in vitro, Assay Code: SCL+, Evaluation Type: Evaluation B (Post-1980)) “active; positive”; (Species/Cell Type: Human, Assay Type: Sister-chromatid exchange (SCE) in vitro, Assay Code: SC1+, Evaluation Type: Evaluation B (Post-1980)) “active; positive”; (Species/Cell Type: Nonhuman, Assay Type: Sister-chromatid exchange (SCE) in vivo, Assay Code: SC3T, Evaluation Type: Evaluation B (Post-1980)) “no conclusion”; (Species/Cell Type: Rodents, Sex: Male, Assay Type: Dominant lethal test, Assay Code: DLT-, Evaluation Type: Evaluation A (Pre-1980)) “inactive; negative”.

For the molecule `O=C1CN=C(c2ccccc2Cl)c2cc([N+](=O)[O-])ccc2N1`, the mutagenic call was “inactive; negative” (Species/Cell Type: Salmonella typhimurium, Assay Type: Forward and reverse gene mutation, body fluid assay, Assay Code: BFU-, Evaluation Type: Evaluation A (Pre-1980)); “inactive; negative” (Species/Cell Type: Salmonella typhimurium, Assay Type: Forward and reverse gene mutation, host-mediated assay, Assay Code: HMA-, Evaluation Type: Evaluation A (Pre-1980)).

Regarding `C/C=C/c1ccc2c(c1)OCO2`, under setting [1], the call is “active; positive”.

For the molecule `CC(C)Oc1ccccc1OC(=O)N(C)N=O`, the mutagenic call runs as follows: (Species/Cell Type: Bacillus subtilis (H17 vs M45T), Assay Type: Rec-assay, spot test, DNA effects (bacterial DNA repair), Assay Code: REX+, Evaluation Type: Evaluation A (Pre-1980)) “active; positive”; (Species/Cell Type: Escherichia coli WP2, Assay Type: Tryptophan reverse gene mutation, Assay Code: WP2+, Evaluation Type: Evaluation A (Pre-1980)) “active; positive”; under setting [5], “active; positive”; under setting [6], “active; positive”.

As for `CC1CCCCN1CCNc1ccc(CO)c2sc3ccccc3c(=O)c12` (stereo not given), the mutagenic call (Species/Cell Type: Mouse lymphoma (L5178Y) cells, Assay Type: Forward gene mutation at the thymidine kinase (TK) locus, chromosome aberrations, Assay Code: L51+, Evaluation Type: Evaluation A (Pre-1980)) is “active; positive”.

Regarding `c1cc2ccc3ccc(C4CO4)c4ccc(c1)c2c34` (stereo not given), the mutagenic call under setting [6] is “active; positive”.

In the case of `CC(=O)OC1C2OC2C2=CC(O)C3(CC2(C)C1C)OC3(C)CO` (stereo not given), under “Species/Cell Type: Saccharomyces cerevisiae, Assay Type: Mitotic recombination or gene conversion, Assay Code: YEC-, Evaluation Type: Evaluation A (Pre-1980)”, the mutagenic call is “inactive; negative”.

Turning to `Cc1cccc(C2CO2)c1` (stereo not given), the mutagenic call (Species/Cell Type: Escherichia coli WP2 UVRA, Assay Type: Tryptophan reverse gene mutation, Assay Code: WPU+D, Dose Response: With dose response, Evaluation Type: Evaluation A (Pre-1980)) is “active; positive”.
